{"source": "patent US20150322083A1", "about": "“(THIENO[2,3-b][1,5]BENZOXAZEPIN-4-YL)PIPERAZIN-1-YL COMPOUNDS AS SELECTIVE 5-HT2A INVERSE AGONISTS” (Eli Lilly and Company, priority 2014, published 2015)", "key": {"[1]": {"target": "5-HT7 receptors (Homo sapiens, UniProt P34969)", "experiment": "5-HT7 binding", "description": "(§1) Curves are evaluated using a 4-parameter logistic nonlinear equation to obtain the concentration of competitor causing 50% inhibition of radioligand binding (IC50). Equilibrium dissociation constants (Ki) are calculated according to the equation Ki=IC50/(1+L/Kd), where L equals the concentration of radioligand used in the experiment and Kd equals the equilibrium dissociation constant of the radioligand for the receptor, determined from standard saturation analysis or homologous competition experiments. Reported values for Ki, where n values are indicated, are shown as geometric mean±the standard error of the mean (SEM), with the number of replicate determinations indicated by n. Geometric means are calculated by the equation GeoMean=10̂(Average(log Ki 1+log Ki 2+ . . . log Ki n)/[…]).\n(§2) Further, the compounds of the invention may be tested in binding assays and functional activity assays by well known methods for other physiologically important receptors such as, but not limited to, the hERG channel, other serotonin receptors (specifically 5-HT1B receptors, lack of agonist activity at 5-HT2B receptors, 5-HT2C, 5-HT5, 5-HT6, and 5-HT7 receptors), dopaminergic receptors (specifically D1, D2, and D3), H1 receptors, GABAA receptors, adrenergic receptors and monoamine transporters."}, "[2]": {"target": "hERG channel (Homo sapiens, UniProt Q12809)", "sequence (Q12809 whole entry)": "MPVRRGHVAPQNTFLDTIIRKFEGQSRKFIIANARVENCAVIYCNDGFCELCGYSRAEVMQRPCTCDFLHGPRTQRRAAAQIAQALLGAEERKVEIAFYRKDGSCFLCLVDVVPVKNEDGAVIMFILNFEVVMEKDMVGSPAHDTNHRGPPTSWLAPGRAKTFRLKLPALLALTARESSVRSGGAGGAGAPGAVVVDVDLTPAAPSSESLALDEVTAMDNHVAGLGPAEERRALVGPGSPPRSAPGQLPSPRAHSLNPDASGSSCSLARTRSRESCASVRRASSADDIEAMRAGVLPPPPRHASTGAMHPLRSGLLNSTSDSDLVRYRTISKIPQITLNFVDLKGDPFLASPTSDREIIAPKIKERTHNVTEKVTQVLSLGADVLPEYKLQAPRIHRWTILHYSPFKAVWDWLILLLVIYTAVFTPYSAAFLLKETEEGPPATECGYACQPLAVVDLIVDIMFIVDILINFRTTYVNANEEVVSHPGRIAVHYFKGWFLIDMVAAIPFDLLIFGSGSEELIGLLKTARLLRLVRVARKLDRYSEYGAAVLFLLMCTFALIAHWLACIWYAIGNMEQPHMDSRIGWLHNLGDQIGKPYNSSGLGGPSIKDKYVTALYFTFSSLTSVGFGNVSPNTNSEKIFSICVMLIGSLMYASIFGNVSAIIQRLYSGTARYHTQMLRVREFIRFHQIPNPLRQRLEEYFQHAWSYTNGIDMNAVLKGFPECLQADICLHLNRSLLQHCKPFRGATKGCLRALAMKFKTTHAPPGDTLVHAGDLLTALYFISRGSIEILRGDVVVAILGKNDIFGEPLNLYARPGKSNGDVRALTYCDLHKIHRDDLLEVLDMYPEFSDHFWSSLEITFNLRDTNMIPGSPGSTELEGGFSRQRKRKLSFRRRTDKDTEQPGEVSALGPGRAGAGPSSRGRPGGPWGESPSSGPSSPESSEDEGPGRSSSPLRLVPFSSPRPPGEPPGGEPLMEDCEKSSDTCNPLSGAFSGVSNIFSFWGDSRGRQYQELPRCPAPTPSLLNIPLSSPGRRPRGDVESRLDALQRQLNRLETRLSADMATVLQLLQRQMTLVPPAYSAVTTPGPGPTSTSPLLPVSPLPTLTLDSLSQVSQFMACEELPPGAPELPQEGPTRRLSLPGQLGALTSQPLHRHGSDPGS", "experiment": "hERG channel assay (selectivity data)", "from_the_text": "as §2"}, "[3]": {"target": "Adrenergic alpha1B (Homo sapiens, UniProt P35368)", "experiment": "Adrenergic alpha1B binding", "description": "as §1, §2"}, "[4]": {"target": "5-HT6 (Homo sapiens, UniProt P50406)", "experiment": "5-HT6 binding", "description": "as §1, §2"}, "[5]": {"target": "H1 receptors (Homo sapiens, UniProt P35367)", "sequence (P35367 whole entry)": "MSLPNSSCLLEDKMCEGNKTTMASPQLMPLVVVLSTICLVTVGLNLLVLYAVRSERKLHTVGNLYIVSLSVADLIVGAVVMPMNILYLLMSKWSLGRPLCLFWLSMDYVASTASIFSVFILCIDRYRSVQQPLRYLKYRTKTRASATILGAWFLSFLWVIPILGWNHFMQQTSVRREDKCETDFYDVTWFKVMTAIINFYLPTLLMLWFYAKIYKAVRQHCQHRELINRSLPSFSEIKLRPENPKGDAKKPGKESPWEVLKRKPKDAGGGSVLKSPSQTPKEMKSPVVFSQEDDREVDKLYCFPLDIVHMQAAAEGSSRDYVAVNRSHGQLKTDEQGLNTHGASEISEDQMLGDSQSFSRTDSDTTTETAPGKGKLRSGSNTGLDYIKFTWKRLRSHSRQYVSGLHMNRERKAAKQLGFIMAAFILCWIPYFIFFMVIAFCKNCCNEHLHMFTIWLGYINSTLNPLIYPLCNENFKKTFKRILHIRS", "experiment": "H1 receptor binding", "description": "as §1, §2"}, "[6]": {"target": "Adrenergic alpha1A (Homo sapiens, UniProt P35348)", "sequence (P35348 whole entry)": "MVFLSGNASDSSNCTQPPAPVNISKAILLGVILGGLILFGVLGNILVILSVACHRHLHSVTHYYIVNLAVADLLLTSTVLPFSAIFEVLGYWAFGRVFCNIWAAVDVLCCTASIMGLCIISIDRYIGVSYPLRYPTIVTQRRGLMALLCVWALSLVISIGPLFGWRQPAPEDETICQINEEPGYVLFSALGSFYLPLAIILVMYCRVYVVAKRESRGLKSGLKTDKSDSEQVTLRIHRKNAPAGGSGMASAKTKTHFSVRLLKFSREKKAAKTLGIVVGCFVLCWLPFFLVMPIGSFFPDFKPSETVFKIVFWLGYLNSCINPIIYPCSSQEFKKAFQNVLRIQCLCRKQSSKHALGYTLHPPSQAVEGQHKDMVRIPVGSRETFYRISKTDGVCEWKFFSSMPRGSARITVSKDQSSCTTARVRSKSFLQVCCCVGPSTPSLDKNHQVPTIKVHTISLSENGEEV", "experiment": "Adrenergic alpha1A binding", "description": "as §1, §2"}, "[7]": {"target": "5-HT1B receptors (Homo sapiens, UniProt P28222)", "sequence (P28222 whole entry)": "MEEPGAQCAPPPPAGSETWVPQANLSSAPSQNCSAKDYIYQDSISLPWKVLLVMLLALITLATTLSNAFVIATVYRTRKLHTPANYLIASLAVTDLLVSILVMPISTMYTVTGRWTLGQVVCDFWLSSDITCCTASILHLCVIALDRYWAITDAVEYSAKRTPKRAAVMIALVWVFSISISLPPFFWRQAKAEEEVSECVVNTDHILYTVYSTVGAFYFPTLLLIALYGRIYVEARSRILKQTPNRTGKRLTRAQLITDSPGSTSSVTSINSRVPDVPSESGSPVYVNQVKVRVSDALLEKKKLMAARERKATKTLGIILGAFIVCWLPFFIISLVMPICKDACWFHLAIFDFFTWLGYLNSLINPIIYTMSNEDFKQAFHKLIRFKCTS", "experiment": "5-HT1B binding", "description": "as §1, §2"}, "[8]": {"target": "Adrenergic alpha2C (Homo sapiens, UniProt P18825)", "sequence (P18825 whole entry)": "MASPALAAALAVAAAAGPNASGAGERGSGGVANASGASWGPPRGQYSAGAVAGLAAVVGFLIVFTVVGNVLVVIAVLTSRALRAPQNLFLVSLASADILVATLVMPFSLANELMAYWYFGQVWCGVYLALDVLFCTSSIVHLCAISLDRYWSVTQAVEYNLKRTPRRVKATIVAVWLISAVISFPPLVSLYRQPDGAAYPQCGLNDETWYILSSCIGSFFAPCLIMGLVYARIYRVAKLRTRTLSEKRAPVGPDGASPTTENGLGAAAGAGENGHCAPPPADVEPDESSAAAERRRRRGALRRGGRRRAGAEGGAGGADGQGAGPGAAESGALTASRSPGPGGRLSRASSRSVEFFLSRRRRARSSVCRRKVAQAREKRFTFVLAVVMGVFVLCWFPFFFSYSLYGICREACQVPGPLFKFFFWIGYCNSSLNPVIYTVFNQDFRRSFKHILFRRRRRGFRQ", "experiment": "Adrenergic alpha2C binding", "description": "as §1, §2"}, "[9]": {"target": "Dopamine D1 (Homo sapiens, UniProt P21728)", "sequence (P21728 whole entry)": "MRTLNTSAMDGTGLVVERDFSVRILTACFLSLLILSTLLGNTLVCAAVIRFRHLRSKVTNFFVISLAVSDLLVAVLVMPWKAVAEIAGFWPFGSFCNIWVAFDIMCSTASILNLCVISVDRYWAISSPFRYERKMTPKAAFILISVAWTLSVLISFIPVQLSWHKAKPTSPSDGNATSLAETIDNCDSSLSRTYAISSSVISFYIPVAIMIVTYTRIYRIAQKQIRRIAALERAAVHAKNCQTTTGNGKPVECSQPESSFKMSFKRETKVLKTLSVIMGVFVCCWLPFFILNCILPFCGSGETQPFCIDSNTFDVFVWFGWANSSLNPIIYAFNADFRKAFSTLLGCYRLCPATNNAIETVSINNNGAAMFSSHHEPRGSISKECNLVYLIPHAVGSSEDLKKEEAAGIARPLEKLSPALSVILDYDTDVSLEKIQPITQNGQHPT", "experiment": "Dopamine D1 binding", "description": "as §1, §2"}, "[10]": {"target": "T1, recombinant 5-HT2C receptors (human) (Homo sapiens, UniProt P28335)", "T1 construct": "expressed in transfected cells", "T1 sequence (P28335 33-458)": "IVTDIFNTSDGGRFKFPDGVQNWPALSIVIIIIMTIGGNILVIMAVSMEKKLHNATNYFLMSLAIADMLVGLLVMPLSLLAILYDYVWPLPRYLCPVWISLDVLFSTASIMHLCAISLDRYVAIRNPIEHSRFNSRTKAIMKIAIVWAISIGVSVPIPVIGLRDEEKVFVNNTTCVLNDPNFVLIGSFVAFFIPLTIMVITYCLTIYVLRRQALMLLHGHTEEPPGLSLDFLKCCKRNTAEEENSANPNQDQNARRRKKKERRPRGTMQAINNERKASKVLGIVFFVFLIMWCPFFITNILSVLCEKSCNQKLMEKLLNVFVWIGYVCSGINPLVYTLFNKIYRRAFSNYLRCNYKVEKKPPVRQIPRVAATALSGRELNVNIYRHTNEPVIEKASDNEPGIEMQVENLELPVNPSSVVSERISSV", "experiment": "5-HT2C competition binding assay ([125I]-(±)DOI, SPA)", "description": "[^125I]-(±)DOI binding experiments are carried out in SPA 96-well format. Membranes used in this assay are prepared from AV-12 cells stably expressing recombinant 5-HT2C receptors (human). The incubation is initiated by the addition of a mixture of WGA PVT SPA beads (0.5 mg/well, Perkin Elmer (MA, USA), RPNQ0001) and 2.5 μg membranes to assay buffer (50 mM Tris-HCl, 10 mM MgCl2, 0.5 mM EDTA, 10 μM pargyline, 0.1% ascorbic acid, pH7.4) containing 0.2 nM [[^125I]-(±)DOI and varying concentrations of the test compound (10 point concentration response curves). Non-specific binding is determined in the presence of 20 μM 1-(1-naphthyl)piperazine. Samples are incubated for 4 hr. at room temperature (22° C.) and then read in a microplate scintillation counter.\n(§3) Curves are evaluated using a 4-parameter logistic nonlinear equation to obtain the concentration of competitor causing 50% inhibition of radioligand binding (IC50). Equilibrium dissociation constants (Ki) are calculated according to the equation Ki=IC50/(1+L/Kd), where L equals the concentration of radioligand used in the experiment and Kd equals the equilibrium dissociation constant of the radioligand for the receptor, determined from standard saturation analysis or homologous competition experiments. […]"}, "[11]": {"tested_on": "MK-801 induced locomotor hyperactivity", "experiment": "MK-801 induced locomotor hyperactivity in mice", "assay_type": "in vivo", "conditions": "for Distance traveled during habituation with vehicle or compound, Mean: 1 hr. habituation before MK-801; for Distance traveled after administration of vehicle or 0.1 mg/Kg MK-801, Mean: 2 hrs after MK-801 0.1 mg/kg SC", "from_the_text": "MK-801 induced locomotor hyperactivity in mice: The rodent MK-801 induced locomotor hyperactivity assay has been used as a predictor of anti-psychotic therapeutic potential (Corbett, R., Camacho, F., Woods, A. T., Kerman, L. L., Fishkin, R. J., Brooks, K., and Dunn, R. W. Antipsychotic agents antagonize non-competitive N-methyl-D-aspartate antagonist-induced behaviors. Psychopharmacology (1995) vol. 120: 67-74). Compounds of the invention may be evaluated for their ability to reduce locomotor hyperactivity elicited by the NMDA receptor antagonist MK-801. Studies are conducted in the dark. Locomotor activity is measured in clear Perspex™ boxes (40×40×30 cm) based on infrared fields (100×100 cm). Sixteen boxes are used, four on each field, each monitored using overhead infrared cameras (Sanyo VCV-3412P, TrackSys Ltd, UK). The cameras feed into a Quad Videoswitch (VQ403-C), TrackSys Ltd, UK), which in turn feeds a PC running the image analysis application Ethovision v8 (Noidus, NL).\nAll treatment tzroups have initial sample sizes of n=8. Mice are assigned to groups using a pseudorandomised block method where treatments are balanced across the time of day of testing and the test room used. On the test day, animals are transported to the testing room ante-chamber in their home cages and dosed with the test compound (0.3-3 mg/kg po) or vehicle before being placed individually into the test boxes for 1 hr., during which time locomotor activity is measured. Following this habituation period, animals are dosed with MK-801 (0.1 mg/kg SC) or vehicle as appropriate and then replaced into the test boxes where locomotor activity is measured for a further 2 hrs. The measurement of interest for LMA studies is the distance moved (cm). Unless stated otherwise, points on all graphs are plotted as the mean±standard errors.\nData are imported into STATISTICA (v9) for statistical analyses. A general linear model approach is used for all multivariate ANOVAs calculated for the data. Following ANOVA, planned comparisons are used to investigate significant differences from the control animals. Statistical significances are denoted by the following symbols: *p<0.05, **p<0.01. Mean values calculated in Statistica are imported into SigmaPlot (v11) to graph the data."}, "[12]": {"target": "Serotonin Transporter (Homo sapiens, UniProt P31645)", "sequence (P31645 whole entry)": "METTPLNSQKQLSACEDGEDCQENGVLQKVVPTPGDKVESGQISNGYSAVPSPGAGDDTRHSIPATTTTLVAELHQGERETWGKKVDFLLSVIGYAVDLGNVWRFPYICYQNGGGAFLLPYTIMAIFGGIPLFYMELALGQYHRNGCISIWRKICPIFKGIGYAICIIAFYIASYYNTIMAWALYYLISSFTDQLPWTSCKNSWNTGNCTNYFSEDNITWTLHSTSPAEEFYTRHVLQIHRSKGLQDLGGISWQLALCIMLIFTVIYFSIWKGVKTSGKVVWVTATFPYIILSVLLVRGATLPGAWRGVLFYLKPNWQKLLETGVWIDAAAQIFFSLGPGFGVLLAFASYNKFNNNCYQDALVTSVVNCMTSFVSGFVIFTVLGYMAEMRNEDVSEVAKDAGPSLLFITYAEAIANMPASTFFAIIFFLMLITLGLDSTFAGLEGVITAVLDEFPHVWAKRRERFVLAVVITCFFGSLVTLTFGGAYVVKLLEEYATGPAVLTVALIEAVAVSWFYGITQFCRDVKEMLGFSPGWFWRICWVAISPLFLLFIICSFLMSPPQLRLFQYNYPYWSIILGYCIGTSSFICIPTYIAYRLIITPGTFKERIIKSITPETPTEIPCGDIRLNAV", "experiment": "Serotonin transporter binding", "description": "as §1, §2"}, "[13]": {"target": "recombinant human 5-HT2A receptor (Homo sapiens, UniProt P28223)", "sequence (P28223 whole entry)": "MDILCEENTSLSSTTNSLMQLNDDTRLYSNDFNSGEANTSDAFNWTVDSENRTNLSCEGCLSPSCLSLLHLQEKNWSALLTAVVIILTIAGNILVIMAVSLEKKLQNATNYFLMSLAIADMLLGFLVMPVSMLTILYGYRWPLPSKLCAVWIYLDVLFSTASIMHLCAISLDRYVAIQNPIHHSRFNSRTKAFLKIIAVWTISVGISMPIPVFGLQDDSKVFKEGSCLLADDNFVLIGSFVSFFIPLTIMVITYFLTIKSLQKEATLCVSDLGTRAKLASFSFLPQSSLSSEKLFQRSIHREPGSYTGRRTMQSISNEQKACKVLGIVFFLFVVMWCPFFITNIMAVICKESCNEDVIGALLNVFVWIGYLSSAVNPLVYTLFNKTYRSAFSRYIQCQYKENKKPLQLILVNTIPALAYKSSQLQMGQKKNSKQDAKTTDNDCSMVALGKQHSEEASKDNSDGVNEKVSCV", "experiment": "5-HT2A competition binding assay ([3H]-Ketanserin, SPA)", "set-up": "expressed in transfected cells", "description": "[^3H]-Ketanserin binding experiments are carried out in SPA 96-well format. Membranes used in this assay are prepared from AV-12 cells stably expressing recombinant 5-HT2A receptors (human). The incubation is initiated by the addition of a mixture of WGA YSi SPA beads (1 mg/well, Perkin Elmer (MA, USA), Product No. RPNQ0011) and 2 μg membranes to assay buffer (67 mM Tris, 0.5 mM EDTA; pH 7.6) containing 3.1 nM [^3H]-Ketanserin and varying concentrations of the test compound (10 point concentration response curves). Non-specific binding is determined in the presence of 20 μM 1-(1-naphthyl)piperazine. Samples are incubated for 4 hr. at room temperature (22° C.) and then read in a microplate scintillation counter.\nas §3"}}}
{"molecule": "Cc1ccc2c(c1)Oc1sc(SC(C)C)cc1C(N1CCN(CC(C)(C)C(=O)O)CC1)=N2", "note": "[Example 1, 3-[4-(2-isopropylsulfanyl-8-methyl-thieno[2,3-b][1,5]benzoxazepin-4-yl)piperazin-1-yl]-2,2-dimethyl-propanoic acid]", "values": [{"measurement": "Ki", "setting": "[1]", "result": "> 2060", "unit": "nM"}, {"measurement": "hERG Channel", "setting": "[2]", "result": ">100", "unit": "µM"}, {"measurement": "Ki", "setting": "[3]", "result": "> 15.8", "unit": "µM"}, {"measurement": "Ki", "setting": "[4]", "result": 1130, "unit": "nM"}, {"measurement": "Ki", "setting": "[5]", "result": 599, "unit": "nM"}, {"measurement": "Ki", "setting": "[6]", "result": 4.45, "unit": "µM"}, {"measurement": "Ki", "setting": "[7]", "result": "> 9.59", "unit": "µM"}, {"measurement": "Ki", "setting": "[8]", "result": "> 6.43", "unit": "µM"}, {"measurement": "Ki", "setting": "[9]", "result": 2640, "unit": "nM"}, {"measurement": "Ki", "setting": "[10]", "result": 359, "unit": "nM"}, {"measurement": "Distance traveled during habituation with vehicle or compound, Mean", "setting": "[11]; 0.3 mg/Kg po", "result": 9336.73, "unit": "cm"}, {"measurement": "Distance traveled after administration of vehicle or 0.1 mg/Kg MK-801, Mean", "setting": "[11]; 0.3 mg/Kg po", "result": 8492.08, "unit": "cm"}, {"measurement": "Distance traveled during habituation with vehicle or compound, Mean", "setting": "[11]; 1.0 mg/Kg po", "result": 8939.48, "unit": "cm"}, {"measurement": "Distance traveled after administration of vehicle or 0.1 mg/Kg MK-801, Mean", "setting": "[11]; 1.0 mg/Kg po", "result": 7258.87, "unit": "cm"}, {"measurement": "Distance traveled during habituation with vehicle or compound, Mean", "setting": "[11]; 3.0 mg/Kg po", "result": 7682.77, "unit": "cm"}, {"measurement": "Distance traveled after administration of vehicle or 0.1 mg/Kg MK-801, Mean", "setting": "[11]; 3.0 mg/Kg po", "result": 7085.68, "unit": "cm"}, {"measurement": "effect on MK-801 induced locomotor hyperactivity (in words)", "setting": "[11]; 0.3-3 mg/kg po", "result": "significantly block"}, {"measurement": "Ki", "setting": "[12]", "result": "> 521", "unit": "nM"}, {"measurement": "Ki", "setting": "[13]", "result": 4.84, "unit": "nM"}]}
